Laboratory results: patent publication US8344008B2 (Janssen Pharmaceutica NV, priority 2007, dated 2013)
Where a name gives a salt, the structure may show the parent alone. Read-outs that look alike come from different tables or passages of the source.

Assays:
LTB4 production [1] = conditions: oral administration; rat peritoneum in vivo; cited from earlier work
LTB4 production [2] = conditions: oral administration; mouse blood ex vivo; cited from earlier work
colitis symptoms = conditions: eight weeks of treatment; cotton top tamarins; cited from earlier work
[3] = molecular target: T1, recombinant human LTA4 hydrolase (rhLTA4H) (Homo sapiens, UniProt P09960); assay: Recombinant Human LTA4 Hydrolase Assay for LTA4 Hydrolase Inhibitor Activity; format: biochemical; conditions: average of results obtained; LTB4 quantified by enzyme-linked immunoassay
T1 construct: made in house; host or cells: Spodoptera frugiperda (Sf-9) cells, baculovirus (pFastBac1)
T1 sequence (P09960 1-611): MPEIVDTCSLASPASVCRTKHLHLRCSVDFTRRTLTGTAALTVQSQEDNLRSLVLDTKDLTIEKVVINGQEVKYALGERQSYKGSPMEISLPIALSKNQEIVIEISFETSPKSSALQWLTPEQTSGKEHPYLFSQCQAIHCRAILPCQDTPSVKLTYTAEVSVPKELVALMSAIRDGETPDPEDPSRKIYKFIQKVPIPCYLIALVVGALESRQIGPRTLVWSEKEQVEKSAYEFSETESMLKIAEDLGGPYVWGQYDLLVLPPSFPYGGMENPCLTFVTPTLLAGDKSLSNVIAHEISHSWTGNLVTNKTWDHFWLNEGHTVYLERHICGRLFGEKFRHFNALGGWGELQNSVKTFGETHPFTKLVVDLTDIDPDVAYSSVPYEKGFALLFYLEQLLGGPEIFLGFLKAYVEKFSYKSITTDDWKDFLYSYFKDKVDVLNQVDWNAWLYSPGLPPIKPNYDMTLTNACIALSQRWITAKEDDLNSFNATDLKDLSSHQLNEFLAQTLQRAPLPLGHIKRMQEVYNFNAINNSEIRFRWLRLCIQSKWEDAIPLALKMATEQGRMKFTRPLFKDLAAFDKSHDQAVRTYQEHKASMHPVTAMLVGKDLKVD
Outline: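 Baculovirus/Sf-9-expressed human LTA4 hydrolase (36 ng) preincubated with compound 10 min at rt in 0.1 M potassium phosphate pH 7.4, 5 mg/mL fatty-acid-free BSA. Reaction started with 9 ng LTA4 free acid, run 10 min at rt; LTB4 measured by enzyme immunoassay, IC50 from 4-parameter fit.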

Row | Structure (SMILES) | Ki [3] | further results
1 | CN(CCCOc1ccc(Cc2ccccc2)cc1)CCC(=O)O.Cl [SC57461] | – | inhibition of ionophore-induced LTB4 production (LTB4 production [1]): caused inhibition; inhibition of ionophore-induced LTB4 production (LTB4 production [2]): caused inhibition; colitis symptoms (colitis symptoms): significantly improved colitis symptoms
2 | Cn1cnc(S(=O)(=O)N2CC3CN(Cc4ccc(Oc5nc6ccccc6s5)cc4)CC3C2)c1 (centres unmarked) [Example 122, 2-{4-[5-(1-Methyl-1H-imidazole-4-sulfonyl)-hexahydro-pyrrolo[3,4-c]pyrrol-2-ylmethyl]-phenoxy}-benzothiazole] | 139 nM | –
3 | O=S(=O)(c1ccsc1)N1CC2CN(Cc3ccc(Oc4nc5ccccc5s4)cc3)CC2C1 (centres unmarked) [Example 125, 2-{4-[5-(Thiophene-3-sulfonyl)-hexahydro-pyrrolo[3,4-c]pyrrol-2-ylmethyl]-phenoxy}-benzothiazole] | 3620 nM | –
4 | NC(=O)N[C@H]1C[C@H]2CC[C@@H](C1)N2CCOc1ccc(Oc2nc3cccc(Cl)c3s2)cc1 [Example 278, meso-endo-(8-{2-[4-(7-Chloro-benzothiazol-2-yloxy)-phenoxy]-ethyl}-8-aza-bicyclo[3.2.1]oct-3-yl)-urea] | 1740 nM | –
5 | Cc1ccc2nc(Oc3ccc(CCN[C@@H]4C[C@H]5CC[C@@H](C4)N5S(C)(=O)=O)cc3)sc2c1 [Example 269, meso-exo-(8-Methanesulfonyl-8-aza-bicyclo[3.2.1]oct-3-yl)-{2-[4-(6-methyl-benxothiazol-2-yloxy)-phenyl]-ethyl}-amine] | 630 nM | –

Further compounds by falling Ki [3], results first:

Row | Ki [3] | Structure (SMILES) | further results
6 | 59 nM | CC(=O)N1C[C@@H]2C[C@H]1CN2Cc1ccc(Oc2nc3ccccc3s2)cc1F [Example 79, (S,S)-1-{5-[4-(Benzothiazol-2-yloxy)-2-fluoro-benzyl]-2,5-diaza-bicyclo[2.2.1]hept-2-yl}-ethanone] | –
7 | 55 nM | c1ccc2sc(Oc3ccc(CN4CC5CNCC5C4)cc3)nc2c1 (centres unmarked) [Example 83, 2-[4-(Hexahydro-pyrrolo[3,4-c]pyrrol-2-ylmethyl)-phenoxy]-benzothiazole hydrochloride] | –
8 | 35 nM | CS(=O)(=O)N1CC2CN(Cc3ccc(Oc4nc5ccccc5s4)cc3)CC2C1 (centres unmarked) [Example 129, 2-[4-(5-Methanesulfonyl-hexahydro-pyrrolo[3,4-c]pyrrol-2-ylmethyl)-phenoxy]-benzothiazole] | –
9 | 17 nM | CS(=O)(=O)N[C@H]1C[C@H]2CC[C@@H](C1)N2CCc1ccc(Oc2nc3ccc(F)cc3s2)cc1 [Example 277, meso-endo-N-(8-{2-[4-(6-Fluoro-benzothiazol-2-yloxy)-phenyl]-ethyl}-8-aza-bicyclo[3.2.1]oct-3-yl)-methanesulfonamide] | –
10 | 10 nM | O=C(N1CCOCC1)N1CC2CN(Cc3ccc(Oc4nc5ccccc5s4)cc3)CC2C1 (centres unmarked) [Example 115, {5-[4-(Benzothiazol-2-yloxy)-benzyl]-hexahydro-pyrrolo[3,4-c]pyrrol-2-yl}-morpholin-4-yl-methanone] | –
11 | 9 nM | NC(=O)N1[C@@H]2CC[C@H]1C[C@@H](NCc1ccc(Oc3nc4c(F)cccc4s3)cc1)C2 [Example 198, meso-endo-3-[4-(4-Fluoro-benzothiazol-2-yloxy)-benzylamino]-8-aza-bicyclo[3.2.1]octane-8-carboxylic acid amide] | –
12 | 5 nM | NC(=O)N1CC2CN(CCc3ccc(Oc4nc5c(F)cccc5s4)cc3)CC2C1 (centres unmarked) [Example 147, 5-{2-[4-(4-Fluoro-benzothiazol-2-yloxy)-phenyl]-ethyl}-hexahydro-pyrrolo[3,4-c]pyrrole-2-carboxylic acid amide] | –
